In general, IC50 refers to the concentration that inhibits the measured activity by half.

The subject of data set [1] is mice. Kind of data set: Toxicity: death on intraperitoneal administration to mice for 5 weeks. The data set is classed as in vivo. The settings on record: 10 mg/kg per day intraperitoneally for 5 weeks. The source says:
Further, the compounds of the present invention are low in toxicity, and these compounds are expected to be high in safety.

Data set [2] concerns TNF-α production by LPS stimulated macrophages. As to the kind of experiment: TNF-α production inhibitory activity by LPS stimulated macrophages. In kind it is cell-based. The settings on record: Macrophage, BALB/c mouse peritoneal macrophages, cultured for 8 hours, ELISA. How it is done:
The following assay was used to evaluate the ability of the compound of the present invention to suppress TNF-α production by LPS stimulated macrophages according to Immunopharmacol. 29, 121-127 (1995).
1) 6 to 10 week old female BALB/c mice were used, 2 ml portions of thioglycolate were intraperitoneally administered, and the abdominal cavities were washed by 10 ml of PBS after 4 days, whereby 1 to 2×10^7 peritoneal cells were obtained per mouse. These were suspended in a hemocyte solution (0.75% ammonium chloride, 17 mM tris-hydrochlorate buffer, pH7.2), centrifuged, then resuspended in an RPMI1640 medium including 10% fetal calf serum and seeded in a 96-well cell culture plate at a density of 1×10^5 cells/50 μl/well. Since these cells adhered strongly to the tissue culture plate and were positive in nonspecific esterase staining, they were used for the test as mouse peritoneal macrophages. Mouse peritoneal macrophages were precultured overnight at 37° C. in […] for the experiment.
2) E. Coli (serum type 055:B5) derived LPS was dissolved in PBS in a concentration of 1 mg/ml, then sterilized by filtration. The test compound was dissolved in DMSO to make a 1000-fold concentration solution of the final concentration of use. 10 μl of the above LPS stock solution (final concentration 10 μg/ml) and 1 μl of the tested substance stock solution were added and mixed in 0.5 ml of RPMI1640 medium containing 10% fetal calf serum. This was added to the above cells at 50 μl/well and cultured for 8 hours. The cultured supernatant was recovered from each well and the TNF-α concentration was measured by the ELISA method (Cytoscreen® Immunoassay Kit Mouse TNF-α, BioSourse International).
The comparative example was the compound described in WO-A-97-04775, Example 1, mentioned above.
(In general: ELISA stands for enzyme-linked immunosorbent assay.)

The target of data set [3] is type IV phosphodiesterase. Kind of data set: Type IV phosphodiesterase inhibiting activity. The data set is classed as biochemical, human. The settings on record: U937 type IV phosphodiesterase fraction, 0.28 μM cAMP, pH 7.5, 30° C., 30 minutes; read-out: PDEIV-IC50. As for the experimental part:
The following assay was used to evaluate the ability of the compound of the present invention to suppress type IV phosphodiesterase, according to Biochemical. Pharmacol. 48 (6), 1219-1223 (1994).
1) Type IV phosphodiesterase activity fractions were prepared as follows. Namely, human histiocytic lymphoma cell line U937 was cultured in an RPMI1640 medium containing 10% fetal calf serum to obtain 10^9 cells of U937. The cells were recovered by centrifugation and suspended in 40 ml of buffer A (20 mM bis-tris, 5 mM 2-mercaptoethanol, 2 mM benzamidine, 2 mM EDTA, 0.1 mM 4-(2-aminoethyl)benzensulfonyl hydrochloride, 50 mM sodium acetate, pH=6.5). The cells were broken by a sonication and centrifuged (4° C., 10,000 G, 10 minutes) to obtain a supernatant. This was filtered by a 0.45 μm filter to obtain the soluble fraction.
2) The soluble fraction obtained was applied into a 1×10 cm DEAE Sepharose column equalibrated with the buffer A. 120 ml of the buffer A containing a linear gradient solution of 0.05 to 1M sodium acetate was used to separate the phosphodiesterase and recover 24 5-ml fractions. Each of the fractions was measured for the cAMP phosphodiesterase activity.
3) The test compound was reacted at a desired concentration in a reaction mixture containing 20 mM tris-HCl (pH 7.5), 1 mM MgCl2, 100 μM EDTA, 330 μg/ml calf serum albumin, 10 μg/ml 5'-nucleotidase, 0.4 μCi ^3 H-cAMP (0.28 μM cAMP) and the type IV phosphodiesterase stored solution at 30° C. for 30 minutes. QAE-Sephadex suspended in 10 mM of hepes-Na (pH -7.0) was added to the reaction mixture which was then allowed to stand for 5 minutes, then the supernatant was obtained, QAE-Sephadex was further added, to the supernatant, and was allowed to stand for 5 minutes, then the supernatant was obtained and measured for radioactivity.

With `CO[C@H]1CC[C@H](n2cc(C(=O)Nc3c(Cl)cncc3Cl)c(=O)c3cccnc32)CC1` [Example 127, N-(3,5-dichloropyridin-4-yl)-1-(trans-4-methoxycyclohexyl)-1,4-dihydro[1,8]naphthylidin-4-one-3-carboxamide], the death entry in data set [1] is recorded as “no death”. For the same compound, the IC50 came out at 15 nM in data set [2] and 7.2 nM in data set [3].

On to `O=C(Nc1c(Cl)cncc1Cl)c1cn([C@H]2CCN(C(=O)OCc3ccccc3)C2)c2ncccc2c1=O` [Example 10, (S)-N-(3,5-dichloropyridin-4-yl)-1-(1-benzyloxycarbonylpyrrolidin-3-yl)-1,4-dihydro[1,8]naphthyridin-4-one-3-carboxamide], for which the death result in data set [1] is recorded as “no death”. For the same compound, the IC50 turned out to be 10 nM in data set [2] and 1.5 nM in data set [3].

`O=C1CCC(n2cc(C(=O)Nc3ccncc3Cl)c(=O)c3cccnc32)CC1` [Example 123, N-(3-chloropyridin-4-yl)-1-(4-oxocyclohexyl)-1,4-dihydro[1,8]naphthylidin-4-one-3-carboxamide]: the results for the IC50 in data set [2] and in data set [3] were 1200 nM and 390 nM, respectively.

`COC(=O)N1CC(n2cc(C(=O)Nc3ccncc3)c(=O)c3cccnc32)C1` [Example 33, N-(4-pyridyl)-1-(1-methoxycarbonylazetidin-3-yl)-1,4-dihydro[1,8]naphthylidin-4-one-3-carboxamide]: the IC50 in data set [2] turned out to be 5000 nM; in data set [3], 2000 nM.

Consider `O=C(Nc1c(Cl)cncc1Cl)c1cn([C@@H]2CCOC2)c2ncccc2c1=O` [Example 39, N-(3,5-dichloropyridin-4-yl)-1-[(R)-tetrahydro-3-furanyl]-1,4-dihydro[1,8]naphthylidin-4-one-3-carboxamide], for which the IC50 is 5000 nM in data set [2] and 10 nM in data set [3].

Consider `COC(=O)N1CC[C@H](n2cc(C(=O)Nc3c(Cl)cccc3Cl)c(=O)c3cccnc32)C1` [Example 9, (S)-N-(2,6-dichlorophenyl)-1-(1-methoxycarbonylpyrrolidin-3-yl)-1,4-dihydro[1,8]naphthyridin-4-one-3-carboxamide], for which the figures for the IC50 in data set [2] and in data set [3] were 100 nM and 23 nM, respectively.

For the compound `CC(=O)N1CCC(n2cc(C(=O)Nc3c(Cl)cncc3Cl)c(=O)c3cccnc32)CC1` [Example 28, N-(3,5-dichloropyridin-4-yl)-1-(1-acetylpiperidin-4-yl)-1,4-dihydro[1,8]naphthylidin-4-one-3-carboxamide], the IC50 in data set [2] amounted to 100 nM; in data set [3], 7.8 nM.

Turning to `CNC(=S)N1CC[C@H](n2cc(C(=O)Nc3c(Cl)cncc3Cl)c(=O)c3cccnc32)C1` [Example 19, (S)-N-(3,5-dichloropyridin-4-yl)-1-(1-methylaminothiocarbonylpyrrolidin-3-yl)-1,4-dihydro[1,8]naphthylidin-4-one-3-carboxamide], the IC50 in data set [2] came out at 7 nM; in data set [3] it was 6.3 nM.

As for `O=C(Nc1c(Cl)cncc1Cl)c1cn([C@H]2C[C@H]3COC(=O)N3C2)c2ncccc2c1=O` [Example 86, N-(3,5-dichloropyridine-4-yl)-1-[(5S,7S)-1-aza-3-oxabicyclo[3,3,0]octan-2-one-7-yl]-1,4-dihydro[1,8]naphthylidin-4-one-3-carboxamide], the IC50 in data set [2] was 3000 nM; in data set [3], 140 nM.

Take `COC(=O)N1CC(n2cc(C(=O)Nc3cccnc3)c(=O)c3cccnc32)C1` [Example 32, N-(3-pyridyl)-1-(1-methoxycarbonylazetidin-3-yl)-1,4-dihydro[1,8]naphthylidin-4-one-3-carboxamide]: the results for the IC50 in data set [2] and in data set [3] were 4000 nM and 2200 nM, respectively.

In the case of `O=C(Nc1c(Cl)cncc1Cl)c1cn(C2CCSCC2)c2ncccc2c1=O` [Example 101, N-(3,5-dichloropyridin-4-yl)-1-(4-tetrahydrothiopyranyl)-1,4-dihydro[1,8]naphthylidin-4-one-3-carboxamide], the IC50 in data set [2] amounted to 3 nM; in data set [3], 0.4 nM.

Take `COC(=O)N1CC[C@@H](n2cc(C(=O)Nc3c(Cl)cccc3Cl)c(=O)c3cccnc32)C1` [Example 16, (R)-N-(2,6-dichlorophenyl)-1-(1-methoxycarbonylpyrrolidin-3-yl)-1,4-dihydro[1,8]naphthyridin-4-one-3-carboxamide]: the IC50 in data set [2] turned out to be 300 nM; in data set [3] it was 54 nM.

Take `CO[C@H]1CC[C@H](n2cc(C(=O)Nc3ccncc3)c(=O)c3cccnc32)CC1` [Example 126, N-(4-pyridyl)-1-(trans-4-methoxycyclohexyl)-1,4-dihydro[1,8]naphthylidin-4-one-3-carboxamide]: the figures for the concentration for half-maximal inhibition (IC50) in data set [2] and in data set [3] were 1800 nM and 720 nM, respectively.

For the compound `O=C(Nc1ccncc1Cl)c1cn([C@H]2CC[C@H](O)CC2)c2ncccc2c1=O` [Example 122, N-(3-chloropyridin-4-yl)-1-(trans-4-hydroxycyclohexyl)-1,4-dihydro[1,8]naphthylidin-4-one-3-carboxamide], the IC50 in data set [2] came out at 1200 nM; in data set [3], 200 nM.

As to `CN(C)C(=O)[C@@H]1C[C@H](n2cc(C(=O)Nc3c(Cl)cncc3Cl)c(=O)c3cccnc32)CN1` [Example 93, N-(3,5-dichloropyridin-4-yl)-1-[(3S,5S)-(5-dimethylaminocarbonyl)pyrrolidin-3-yl]-1,4-dihydro[1,8]naphthylidin-4-one-3-carboxamide], the IC50 in data set [2] is 2000 nM; in data set [3] it was 69 nM.

Turning to `COC(=O)N1CC[C@@H](n2cc(C(=O)Nc3c(Cl)cncc3Cl)c(=O)c3cccnc32)C1` [Example 17, (R)-N-(3,5-dichloropyridin-4-yl)-1-(1-methoxycarbonylpyrrolidin-3-yl)-1,4-dihydro[1,8]naphthylidin-4-one-3-carboxamide], the IC50 in data set [2] is 10 nM; in data set [3], 4.8 nM.

Regarding `O=C(Nc1c(Cl)cncc1Cl)c1cn(C2CCN(Cc3ccccc3)CC2)c2ncccc2c1=O` [Example 46, N-(3,5-dichloropyridin-4-yl)-1-(benzylpiperidin-4-yl)-1,4-dihydro[1,8]naphthylidin-4-one-3-carboxamide], the IC50 was determined as 500 nM in data set [2] and 13 nM in data set [3].

As to `O=C(O)CN1CCC(n2cc(C(=O)Nc3c(Cl)cncc3Cl)c(=O)c3cccnc32)CC1` [Example 50], the IC50 in data set [2] turned out to be 7000 nM; in data set [3] it was 100 nM.

Consider `CCNC(=O)N1CCC(n2cc(C(=O)Nc3c(Cl)cncc3Cl)c(=O)c3cccnc32)CC1` [Example 27, N-(3,5-dichloropyridin-4-yl)-1-(1-ethylaminocarbonylpiperidin-4-yl)-1,4-dihydro[1,8]naphthylidin-4-one-3-carboxamide], for which the results for the IC50 in data set [2] and in data set [3] were 10 nM and 1.3 nM, respectively.

For `O=CN1CCC(n2cc(C(=O)Nc3c(Cl)cncc3Cl)c(=O)c3cccnc32)CC1` [Example 48, N-(3,5-dichloropyridin-4-yl)-1-(1-formylpiperidin-4-yl)-1,4-dihydro[1,8]naphthylidin-4-one-3-carboxamide], the figures for the IC50 in data set [2] and in data set [3] were 1500 nM and 4.8 nM, respectively.

Regarding `NC(=O)N1CC[C@H](n2cc(C(=O)Nc3c(Cl)cncc3Cl)c(=O)c3cccnc32)C1` [Example 20, (S)-N-(3,5-dichloropyridin-4-yl)-1-(1-aminocarbonylpyrrolidin-3-yl)-1,4-dihydro[1,8]naphthylidin-4-one-3-carboxamide], the values for the IC50 in data set [2] and in data set [3] were 3000 nM and 12 nM, respectively.

The record behind these values is US6331548A, “1-cycloalkyl-1,8-naphthyridin-4-one derivative as type IV phosphodiesterase inhibitor” (Suntory Limited, priority 1998, dated 2001).
